From patent US20100130598A1, “METHODS FOR INDUCING PROGRAMMED CELL DEATH” (Novogen Research Pty Ltd., priority 2008, published 2010)

What was measured:
Assay type in all cases: cell-based, human
[1] = tested on: HPAC cells; assay: Western blot analysis of apoptosis regulatory proteins, p21 and p53, HPAC; details: 10 μM
Text: (§1) Cells. Human pancreatic cell lines HPAC, MIAPaCa-2 and PANC-1 were obtained from the ATCC. (Manassas, Va.). The cells were maintained in DMEM media with Gln and high glucose (Mediatech, Manassas, Va.) with 10% fetal bovine serum (FBS, HyClone, Logan, Utah) and pencillin/streptomycin.
(§2) Antibodies. Antibodies utilised in this study specific to p53 and, p21 were obtained from (Calbiochem, EMD, San Diego, Calif.), Caspase 9, XIAP, COX IV, Bcl2 and Akt (Cell Signaling Technology, Danvers, Mass.), Caspase 2, Cytochrome c and Bid (BD Pharmingen, San Diego, Calif.). GAPDH (RDI, Concord, Mass.) or β-actin (Sigma, St. Louis, Mo.) was used as a housekeeping gene to standardize the protein loading on the gels and blots.
(§3) Western blot analysis. Cells were seeded on 100 mm tissue culture plates and grown overnight to ˜90% confluence. Cells were then treated with the drug combinations for indicated time points. After the final treatment step, the cells were lysed with 500 μL of a lysis buffer containing 1% Nonidet P-40, 0.1% SDS, 0.5% deoxycholate, 150 mM NaCl, 50 mM Tris-HCl pH7.5, 1 mM EDTA, 1 mM PMSF and protease inhibitors (Roche) on ice for 30 minutes. Cell lysates were harvested with a sterile cell scraper and centrifuged at 15,000×g for 15 minutes to remove cell debris. Protein was assayed by the BCA method (Pierce) and 50 μg aliquots were separated on 12%, T, 2.6%C SDS-PAGE gels. Proteins were electrophoretically transferred to PVDF membranes (Immobilon P, Millipore, Billerica, Mass.) by the wet transfer method. These membranes were probed with specific antibodies and with anti-GAPDH which was used as the housekeeping gene to standardize the protein loading. The blots were developed on X-ray films using HRP-conjugated secondary antibodies (Southern Biotech, Birmingham, Ala.) and a chemiluminescent substrate (ECL, Amersham, N.Y.).

[2] = tested on: Caspase 2, 3 and 9 in HPAC cells; assay: In situ caspase activity by flow cytometry, HPAC
Protocol: as §1
[…] The cells were incubated with caspase substrates for 1 h at 37° C., 5% CO2, then probed with Annexin-V-Cy5 and sytox blue. Caspase +ve cells were gated as shown in the histograms and these cells are indicated on the Annexin-V-Cy5/sytox blue spectra as blue cells. In situ caspase activity was assayed using fluorescent substrates. For Caspase 2, FITC-VDVAD-fmk (Biovision K182-100), for Caspase 3, FITC-DEVD-fmk (K183-100) and for Caspase 9, FITC-LEHD-fmk (K199-100) was used. These substrates bind irreversibly to their respective activated caspases, and caspase activation was quantitated by flow cytometry. After 1 hr incubation at 37° C. in 5% CO2, the cells were washed with DPBS containing 5% FBS and resuspended in Annexin-V binding buffer containing Annexin-V-Cy5 (Biovision K103-3) and sytox blue (Invitrogen), a dye that binds necrotic cells. Caspase activation, apoptosis and necrosis were measured simultaneously using a violet, blue and red laser in a BD LSRII flow cytometer.

[3] = tested on: HPAC cells; assay: Mitochondrial membrane potential by FACS (JC-1), HPAC; details: dose-dependent, 48 hrs of treatment
Protocol: as §1
(§4) FACS Analysis. Apoptosis was measured by FACS analysis using Annexin-V-FITC and propidium iodide (PI) (Biovision, Mountain View, Calif.) as probes (Ahn et al., 2003). Mitochondrial membrane potential was measured by FACS analysis using JC-1 (Biovision) as a probe (Ahn et al., 2003). Cell cycle was analyzed on ethanol-fixed, RNaseA-treated cells staining with PI. In each spectrum, 10,000 gated events were recorded and analyzed with a FACSCalibur (BD Biosciences. San Jose, Calif.). All experiments were done in triplicate, error bars represent one standard deviation. Caspase inhibitor I (zVAD-fmk) was obtained from Calbiochem.

[4] = tested on: MIAPaCa-2 cells; assay: Mitochondrial membrane potential by FACS (JC-1), MIAPaCa-2; details: MIAPaCa-2, dose-dependent, 48 hrs of treatment
Protocol: as §1, §4

[5] = tested on: MIAPaCa-2 cells; assay: Western blot analysis of apoptosis regulatory proteins, p21 and p53, MIAPaCa-2
Text: as §1, §2, §3

[6] = tested on: ribosomal p70 S6 kinase (p-S6k); assay: Western blot of EOC whole cell lysates for p-S6k; details: EOC cells, 10 g/ml (as printed, FIG. 3 legend), 15 mins post-treatment
Text: Protein preparation and cellular fractionation. After drug treatment, protein was extracted and measured as previously described (Alvero et al, 2006). For separation of the cytoplasmic and mitochondrial fractions, cell pellets were processed using the ApoAlert™ Cell Fractionation Kit (BD Biosciences, San Jose, Calif.) according to the manufacturer's instructions. For separation of the cytoplasmic and nuclear fractions, pellets were processed using NE-PER Nuclear and Cytoplasmic Extraction (Pierce Biotechnology, Inc., Rockford, Ill.).
SDS-PAGE and Western blots. Cell lysates (20 μg protein) were denatured in sample buffer (2.5% SDS, 10% glycerol, 5% β-mercapto-ethanol, 0.15 M Tris (pH=6.8) and 0.01% bromophenol blue) and subjected to 12% SDS-PAGE as previously described (Kamsteeg et al, 2003). […]

In the case of `COc1ccc(C2c3ccc(O)cc3OCC2c2ccc(O)cc2)cc1` (stereo not drawn) [Compound 10, 3-(4-hydroxyphenyl)-4-(4-methoxyphenyl)chroman-7-ol], the “expression of p53” value ([1]; HPAC (wild type p53), by 48 hr) is reported as “elevated”, the Bid cleavage ([1]; HPAC) is reported as “transitory increase” and the “Caspase 2 cleavage” value ([1]; HPAC) is reported as “cleaved to a lesser extent”. The “cleavage of Caspase 3” value ([1]; HPAC) was “did not cause significant cleavage”, the “level of XIAP” value ([1]; HPAC) was “reduced” and the “levels of Bcl2” value ([1]; HPAC) was “lowered”. The p21 ([1]; HPAC) was “essentially unchanged”, the “total Akt” value ([1]; HPAC, early timepoint (4 hr)) was “reduced” and the “cleaved caspase 9 (17kd)” value ([1]; HPAC, time course 0-48 hrs) was “initial drop in cleaved caspase 9 (17kd) followed by an increase after 16 hr”. For the same molecule, the “caspase 2 and caspase 9 induction” value ([2]; 10 μM, after 48 hrs) was “neither caspase 2 or caspase 9 were induced”, the caspase-3 induction ([2]; 10 μM, after 48 hrs) was “modestly induced” and the “caspase 9 activation” value ([2]; 30 μM, data not shown) was “activated”. For the same molecule, the mitochondrial depolarization [3] was “depolarized”, the mitochondrial depolarization [4] was “depolarized” and the “expression of p53” value ([5]; MIAPaCa-2 (mutant p53), 10 μM) was “unaffected”. For the same molecule, the “cleavage of Caspase 3” value ([5]; MIAPaCa-2, 10 μM) was “did not cause significant cleavage”, the “full-length Caspase 2 (48Kd) cleavage” value ([5]; MIAPaCa-2, 10 μM) was “cleaved” and the “levels of Bcl2” value ([5]; MIAPaCa-2, 10 μM) was “lowered”. For the same molecule, the p21 ([5]; MIAPaCa-2, 10 μM) was “elevated”, the “total Akt” value ([5]; MIAPaCa-2, 10 μM, early timepoint (4 hr)) was “reduced” and the Bid cleavage ([5]; MIAPaCa-2, 10 μM, over time) was “induced Bid cleavage over time”. The “cleaved caspase 9 (17kd)” value ([5]; MIAPaCa-2, 10 μM, time course 0-48 hrs) was “initial drop in cleaved caspase 9 (17kd) followed by an increase after 16 hr” and the “level of XIAP” value ([5]; MIAPaCa-2, 10 μM, degradation more pronounced than in HPAC) was “reduced”.

In the case of `COc1ccc(C2c3ccc(O)c(C)c3OCC2c2ccc(O)cc2)cc1` (stereo not drawn) [Compound 1, 3-(4-hydroxyphenyl)-4-(4-methoxyphenyl)-8-methylchroman-7-ol], the p-S6k level [6] is reported as “down-regulated”.
